1 compound from patent publication US12274684B2, “Treatment of vasculopathy with prostacyclin and mesenchymal stem cells” (United Therapeutics Corporation, priority 2013, dated 2025) can be followed below.

For assay [1], the system named is human bone marrow MSC. The experiment in a line: VEGF-A gene expression in MSC by qRT-PCR. It counts as cell-based. As for the experimental part:
Conditioned media was assayed for VEGF by ELISA after 24 hours of treprostinil exposure (n=4 replicates). Cells from those replicates were lysed, and RNA was extracted to determine VEGF-A gene expression by qRT-PCR. Cells from the remaining two (2) replicates were trypsinized, and assayed for cell viability by trypan blue exclusion. Cell culture supernatant was assayed for VEGF protein by ELISA (FIG. 3A, n=4). Cell lysates from those cultures were assayed for VEGF-A gene expression by qRT-PCR, and normalized to the control value (FIG. 3B, n=4). In both figures, error bars represent the standard deviation in each test group. To characterize the effect of treprostinil on MSC, cells were analyzed by qRT-PCR and microarray to identify changes in gene expression (4). Cell culture supernatant media was assayed for selected inflammatory cytokines by bead-based immunoassays (2). Secreted vesicles were isolated from cell culture supernatant, and assayed for RNA content by qRT-PCR (7). Vesicles were also assayed for size and concentration by tunable resistive pulse sensing, or TRPS (7) (refer to Example 4).
(In general: Quantitative PCR measures a nucleic acid by following its amplification.)

Assay [2] concerns human bone marrow MSC. As to the kind of experiment: Bead-based immunoassay (Luminex) of cytokines in MSC culture supernatant. It counts as cell-based. The settings on record: 250 μg/mL, 24 h. As for the experimental part:
Human bone marrow MSC were expanded and seeded into six (6) T225 flasks using standard growth medium (Table 1). At 95-99% confluency, cells were thoroughly washed with PBS. Three (3) flasks were replenished with basal media containing 250 μg/mL treprostinil, (+)Tre, and the remaining three (3) flasks were replenished with unsupplemented basal media, (−)Tre. After 24 hours of culture, representative images were captured from (+) Tre and (−) Tre cultures. Conditioned media was collected from each replicate, divided into two samples of appropriate volumes, and analyzed separately for: 1) secreted proteins (Myriad RBM InflammationMAP® 1.0) and 2) exosome RNA content. Cells were lysed directly from culture flasks, processed for total RNA isolation, and analyzed for gene expression by microarray (Illumina Human HT12 Expression BeadChip). Bead-based immunoassays (Luminex) was performed to assess the concentration of 46 cytokines in cell culture supernatants (Myriad RBM Human InflammationMAP® 1.0). Of the 46 evaluated, 6 were differentially secreted in treprostinil-treated and -untreated MSC cultures (see Table 6, n=3 per group). Asterisks indicate statistical significance between the groups based on a Student's T Test (*p<0.001, or **p<0.0001).

`CCCCC[C@H](O)CC[C@@H]1[C@H]2Cc3cccc(OCC(=O)O)c3C[C@H]2C[C@H]1O` [treprostinil]: the “VEGF-A gene expression vs untreated controls” value in assay [1] (100 μg/mL, 24 h) was “not significantly different from untreated controls”. The “VEGF-A gene expression, fold increase” value in assay [1] (200 μg/mL, 24 h) is “over 5 fold”. Besides, in assay [1] (250 μg/mL, 24 h (FIG. 8, upper panel)), the “VEGF-A expression, fold over untreated controls (qRT-PCR)” value was around 3.5 fold. Moreover, in assay [2], the “IL-6 production, fold more compared to control MSC” value is given as around 50 fold and the “MCP-1 secretion, fold less than control MSC” value is on record as 6-7 fold. The “Interleukin-8 (IL-8) secretion” value in assay [2] (DECREASED vs (−) Treprostinil 2.4 +/− 1.0 pg/ml) is listed as “Below detection”. The “Tissue Inhibitor of Metalloproteinases 1 (TIMP-1) secretion” value in assay [2] (DECREASED vs (−) Treprostinil 29 +/− 3 ng/ml, p<0.001) worked out at 12 ± 1 ng/mL. Moreover, the “Monocyte Chemotactic Protein 1 (MCP-1) secretion” value in assay [2] (DECREASED vs (−) Treprostinil 379 +/− 35 pg/ml, p<0.0001) is 47 ± 9 pg/mL. In addition, the “Ferritin (FRTN) secretion” value in assay [2] (INCREASED vs (−) Treprostinil 0.70 +/− 0.11 ng/mL) came out at 0.96 ± 0.01 ng/mL. The “Interleukin-6 (IL-6) secretion” value in assay [2] (INCREASED vs (−) Treprostinil 62 +/− 6 pg/ml, p<0.0001) turned out to be 3580 ± 384 pg/mL. The “Vascular Endothelial Growth Factor (VEGF) secretion” value in assay [2] (INCREASED vs (−) Treprostinil 235 +/− 16 pg/ml, p<0.0001) was 612 ± 37 pg/mL.
